{"source": "patent US20260374818A1", "about": "“CATIONIC PEPTIDES WITH BROAD SPECTRUM ACTIVITY” (priority 2023, published 2026)", "key": {"[1]": {"test_system": "3-day-old oral plaque biofilms", "assay": "Oral plaque biofilm model, brief (1 minute) exposure, dead cell volume", "type": "cell-based", "details": "10 μg/mL, 1 minute (FIG. 11)"}, "[2]": {"assay": "Peptide aggregation in RPMI + 10% FBS with PBMCs (microscopy)", "type": "physicochemical", "details": "overnight", "experimental": "Peptide Aggregation: Peptide aggregation was assessed qualitatively by examining samples of peptides mixed with PBMCs following overnight incubation at 37 °C and 5% CO2. All samples were prepared in RPMI media containing 10% FBS the same manner as the cytotoxicity assays described above. Visualization of aggregates was done using a Nikon Eclipse TS100 Inverted Microscope at 10× magnification.\nIn aggregation studies, peptides were added to PBMCs in RPMI media containing 10% FBS and incubated overnight at 37 °C in 5% CO2.\nThe peptides were also evaluated for their tendency to aggregate when added to RPMI tissue culture media containing 10% fetal bovine serum in the presence of PBMCs. Peptides were added to PBMCs in RPMI media containing 10% FBS and incubated overnight at 37 °C in 5% CO2. […] Compared to a highly aggregation prone peptide, 1018 [Haney, E. F., et al. (2017). Aggregation and its influence on the immunomodulatory activity of synthetic innate defense regulator peptides.\nAs with the DJK-5 derivatives above, the AB103-D derivatives were evaluated for their tendency to aggregate when added to RPMI tissue culture media containing 10% fetal bovine serum in the presence of PBMCs. Peptides were added to PBMCs in RPMI media containing 10% FBS and incubated overnight at 37 °C in 5% CO2."}, "[3]": {"test_system": "peripheral blood mononuclear cells (PBMCs)", "assay": "Cytotoxicity (LDH release), PBMCs"}, "[4]": {"test_system": "3-day-old oral plaque (multispecies) biofilms", "assay": "Oral plaque biofilm model, long-term (1-3 days) exposure, dead cell volume", "type": "cell-based", "details": "10 μg/mL, 1 or 3 days (FIG. 10)"}, "red blood cells": {"test_system": "red blood cells", "assay": "Hemolysis", "type": "cell-based, human", "details": "4 hours", "experimental": "Hemolysis: Peptide induced hemolysis was evaluated according to methods described previously [Hilchie, A. L., et al. (2016). Mastoparan is a membranolytic anti-cancer peptide that works synergistically with gemcitabine in a mouse model of mammary carcinoma. Biochimica Et Biophysica Acta, 1858(12), 3195-3204]. Briefly, red blood cells were obtained, with human ethics approval, from the blood of healthy volunteers collected in a sodium heparin tube and then rinsed three times in PBS, centrifuging between washes, to obtain the hematocrit (100% RBC). A 2.5% RBCs suspension was exposed to peptide at varying concentrations and incubated at 37 C in a 5% CO2 humidified atmosphere for 4 hours. Supernatants were collected following centrifugation (1100 rpm) and transferred to a flat bottom microtitre plate. The absorbance (490 nm) of each supernatant was measured on a BioTek Epoch Microplate Spectrophotometer. Percent hemolysis was calculated by comparing the absorbance arising from peptide treated cells to RBCs treated with […] (0% hemolysis) or lysed with 1% Triton X-100 (100% hemolysis)."}, "[5]": {"test_system": "MRSA biofilms (USA300 LAC)", "details": "SPOT peptides"}, "[6]": {"test_system": "P. aeruginosa PAO1 biofilms", "details": "P. aeruginosa PAO1 biofilms; >95% pure peptides; crystal violet; BM2 minimal media"}, "[7]": {"test_system": "P. aeruginosa PAO1 biofilms", "assay": "Biofilm inhibition by SPOT-synthesized AB103-D variants (crystal violet), P. aeruginosa", "type": "cell-based, Pseudomonas aeruginosa", "details": "P. aeruginosa PAO1, SPOT peptides"}, "MRSA USA300 biofilms": {"test_system": "MRSA USA300 biofilms", "assay": "Biofilm inhibition by >95% pure peptides (crystal violet), MRSA", "type": "cell-based, methicillin resistant Staphylococcus aureus", "details": "MRSA USA300 biofilms, >95% pure peptides, 10% TSB + 0.1% glucose"}, "[8]": {"assay": "Subdermal murine toxicity model", "details": "1 hour after subcutaneous administration; comparator DJK-5", "experimental": "FIGS. 14A-14B show murine subdermal toxicity assessment of AB103-D derived peptides. Clinical scores were recorded for each peptide treated mouse one hour after peptide administration (FIG. 14A). […] The presence of a cyst or lesion was recorded 16 hours after peptide administration and the size of the cyst was measured using calipers (FIG. 14B). Data shown are the mean of two independent replicates at a peptide dose of 4 mg/kg.\nSubdermal murine toxicity model: A subdermal toxicity mouse model was used to evaluate whether peptides induced localized toxicity of treated cutaneous tissue. Mice were anesthetized with 2.5-3% isoflurane and their fur was removed by shaving followed by application of a chemical depilatory. […] Mice were visually assessed and received clinical scores for a battery of signs or symptoms (activity/behaviour change, appearance/grooming, hydration, pain, cyst formation), for which a score of zero was given to animals that appeared normal. Animals were weighed and clinical scores were totalled. Following an overnight (16 h) incubation, mice were scored and weighed then euthanized with CO2 followed by cervical dislocation. Mice were imaged and cysts (swollen, inflamed tissue) were measured using a caliper. Animal experiments were performed in accordance with the Canadian Council on Animal Care (CCAC) guidelines and were approved by the University of British Columbia Animal Care Committee. Female CD-1 mice were purchased from Charles River Laboratories, Inc. (Wilmington, MA). All mice were 8 weeks of age and weighed 25±5 g at the time of the experiment. Animals were group housed in cohorts of three to four littermates. Standard animal husbandry practices were employed."}, "MRSA USA300": {"test_system": "MRSA USA300", "assay": "Biofilm inhibition (at least 80%), MRSA", "type": "cell-based, methicillin resistant Staphylococcus aureus", "details": "n = 4, 10% TSB + 0.1% glucose, 18-24 hours, crystal violet"}, "P. aeruginosa PAO1": {"test_system": "P. aeruginosa PAO1", "assay": "Biofilm inhibition (at least 80%), P. aeruginosa", "type": "cell-based, Pseudomonas aeruginosa", "details": "n = 4, BM2 minimal media, 18-24 hours, crystal violet"}, "[9]": {"test_system": "Acinetobacter baumannii Ab5075", "assay": "Biofilm inhibition (at least 80%), A. baumannii", "type": "cell-based", "details": "n = 4, BM2 minimal media, 18-24 hours, crystal violet"}, "[10]": {"test_system": "Enterobacter cloacae 218R1", "assay": "Biofilm inhibition (at least 80%), E. cloacae", "type": "cell-based", "details": "E. cloacae 218R1; n = 3; BM2 minimal media; 18-24 hours; crystal violet"}, "E. coli O157:H7": {"test_system": "E. coli O157:H7", "assay": "Biofilm inhibition (at least 80%), E. coli", "type": "cell-based, Escherichia coli", "details": "n = 3, BM2 minimal media, 18-24 hours, crystal violet"}, "[11]": {"test_system": "Enterococcus faecium #2-1", "assay": "Biofilm inhibition (at least 80%), E. faecium", "type": "cell-based", "details": "E. faecium #2-1; n = 3; TSB + 1% glucose; 48 hours; crystal violet"}, "[12]": {"test_system": "Klebsiella pneumonia KPLN649", "assay": "Biofilm inhibition (at least 80%), K. pneumonia", "type": "cell-based", "details": "K. pneumoniae KPLN649; n = 3; BM2 minimal media; 48 hours; crystal violet"}}, "note": "Where a SMILES comes first, the peptide text is derived from it. [ ]: non-standard residue; d: D form.", "data": [{"compound": "CC[C@@H](C)[C@@H](NC(=O)[C@@H](C)NC(=O)[C@@H](CCCNC(=N)N)NC(=O)[C@@H](Cc1c[nH]c2ccccc12)NC(=O)[C@@H](CCC(N)=O)NC(=O)[C@H](N)C(C)C)C(=O)N[C@@H](C(=O)N[C@@H](C(=O)N[C@H](CCCNC(=N)N)C(=O)N[C@@H](C(=O)N[C@@H](C(=O)N[C@H](CCCNC(=N)N)C(N)=O)[C@H](C)CC)C(C)C)C(C)C)[C@H](C)CC", "note": "[AB106-D, vqwraiivrvir-NH2] (H-[dV][dQ][dW][dR][dA][dI][dI][dV][dR][dV][dI][dR]-NH2)", "values": [{"measurement": "Killing of oral plaque biofilms, brief exposure", "setting": "[1]", "result": "comparable to or better than peptide DJK-5"}, {"measurement": "Peptide aggregation", "setting": "[2]; 200 μg/ml or highest concentration", "result": "marginal peptide aggregation"}, {"measurement": "Cytotoxicity (LDH)", "setting": "[3]", "result": "only marginally toxic at the highest peptide concentration evaluated"}, {"measurement": "Killing of oral plaque biofilms, long-term exposure", "setting": "[4]", "result": "activity comparable to peptide DJK-5"}, {"measurement": "Hemolysis", "setting": "red blood cells", "result": "only marginally toxic at the highest peptide concentration evaluated"}]}, {"compound": "CC[C@@H](C)[C@@H](NC(=O)[C@H](NC(=O)[C@@H](CCCNC(=N)N)NC(=O)[C@H](NC(=O)[C@@H](CCCNC(=N)N)NC(=O)[C@H](NC(=O)[C@H](NC(=O)[C@@H](CCCNC(=N)N)NC(=O)[C@@H](Cc1c[nH]c2ccccc12)NC(=O)[C@@H](CCC(N)=O)NC(=O)[C@H](N)C(C)C)C(C)C)[C@H](C)CC)C(C)C)C(C)C)C(=O)N[C@H](CCCNC(=N)N)C(N)=O", "note": "[AB108-D, vqwrvirvrvir-NH2] (H-[dV][dQ][dW][dR][dV][dI][dR][dV][dR][dV][dI][dR]-NH2)", "values": [{"measurement": "Biofilm inhibitory activity compared to DJK5", "setting": "[5]; MRSA, three concentrations (FIG. 1)", "result": "only slightly lower than the DJK5 sample"}]}, {"compound": "CC[C@@H](C)[C@@H](NC(=O)[C@@H](C)NC(=O)[C@@H](CCCNC(=N)N)NC(=O)[C@@H](Cc1c[nH]c2ccccc12)NC(=O)[C@@H](CCC(N)=O)NC(=O)[C@H](NC(=O)[C@@H](CCCNC(=N)N)NC(=O)[C@H](NC(=O)[C@H](NC(=O)[C@@H](CCCNC(=N)N)NC(=O)[C@H](NC(=O)[C@H](N)CCCCN)C(C)C)C(C)C)[C@H](C)CC)C(C)C)C(N)=O", "note": "[AB117-D, kvrvirvqwrai] (H-[dK][dV][dR][dV][dI][dR][dV][dQ][dW][dR][dA][dI]-NH2)", "values": [{"measurement": "Peptide aggregation", "setting": "[2]; 50 μg/ml", "result": "slightly"}, {"measurement": "minimum inhibitory concentration of peptide that inhibited at least 90% of biofilm growth (MBIC90)", "setting": "[6]", "result": 8, "unit": "µM"}, {"measurement": "Activity against PAO1 biofilms compared to AB103-D", "setting": "[7]", "result": "activity superior to that of AB103-D"}, {"measurement": "minimum inhibitory concentration of peptide that inhibited at least 90% of biofilm growth (MBIC90)", "setting": "MRSA USA300 biofilms", "result": 0.5, "unit": "µM"}, {"measurement": "Better activity vs. MRSA cf. AB103-D", "setting": "[5]; MRSA biofilms", "result": "~2", "unit": "fold"}, {"measurement": "Clinical score", "setting": "[8]", "result": "< 2"}]}, {"compound": "CN[C@H](CC(C)C)C(=O)N[C@H]1C(=O)N[C@@H](CC(N)=O)C(=O)N[C@H]2C(=O)N[C@H]3C(=O)N[C@H](C(=O)N[C@H](C(=O)O)c4cc(O)cc(O)c4-c4cc3ccc4O)[C@H](O)c3ccc(c(Cl)c3)Oc3cc2cc(c3O[C@@H]2O[C@H](CO)[C@@H](O)[C@H](O)[C@H]2O[C@H]2C[C@](C)(N)[C@H](O)[C@H](C)O2)Oc2ccc(cc2Cl)[C@H]1O", "note": "[VAN]", "values": [{"measurement": "Peptide/Antibiotic Concentration where at least 80% of biofilm growth was inhibited", "setting": "MRSA USA300", "result": 0.25, "unit": "µg/mL"}, {"measurement": "Peptide/Antibiotic Concentration where at least 80% of biofilm growth was inhibited", "setting": "P. aeruginosa PAO1", "result": ">256", "unit": "µg/mL"}, {"measurement": "Peptide/Antibiotic Concentration where at least 80% of biofilm growth was inhibited", "setting": "[9]", "result": 8, "unit": "µg/mL"}, {"measurement": "Peptide/Antibiotic Concentration where at least 80% of biofilm growth was inhibited", "setting": "[10]", "result": 64, "unit": "µg/mL"}, {"measurement": "Peptide/Antibiotic Concentration where at least 80% of biofilm growth was inhibited", "setting": "E. coli O157:H7", "result": 16, "unit": "µg/mL"}, {"measurement": "Peptide/Antibiotic Concentration where at least 80% of biofilm growth was inhibited", "setting": "[11]", "result": ">256", "unit": "µg/mL"}, {"measurement": "Peptide/Antibiotic Concentration where at least 80% of biofilm growth was inhibited", "setting": "[12]", "result": 128, "unit": "µg/mL"}]}]}
